Laboratory results reported in patent publication US20210101881A1 (Ancureall Pharmaceutical (Shanghai) Co., Ltd., priority 2018, published 2021).

Tested on: human MOLM13 leukemia cells
Assay: In vivo growth inhibition test of tumor cell (MOLM13 subcutaneous model)
Experimental: Test Example 4. In Vivo Growth Inhibition Test of Tumor Cell
Experimental animals: Bab/c immunodeficiency mice, female, 6 weeks old (weighing about 20 grams), purchased from Shanghai Sippr-BK laboratory animal Co. Ltd., raised by the Animal Center of Shanghai Fudan University, approved by the Ethics Committee of Shanghai Fudan University. The breeding environment is SPF level.
Test samples: Compound 140 of the present invention (purity: 99%), solid powder, stored at 4-8° C.
Cell and animal modelling: human MOLM13 leukemia cells were cultured in RPMI 1640 medium containing 10% fetal bovine serum. Cells in the exponential growth phase were collected (centrifuge at 1700 rpm for 3 minutes), washed once with 1×PBS, and resuspended to obtain a final concentration of 5×10^7/ml cells. Single-point inoculation of 0.1 ml was carried out subcutaneously on the right back.
When the average tumor volume reached ˜400 mm^3, the mice were randomly grouped according to tumor size. The test was divided into solvent control group and administration group, with 3 mice in each group. 0.01 ml of solution per gram of mouse weight was intragastrically administered (p.o.) once a day. The tumor was measured three times a week. Calculation formula for tumor volume: long diameter×short diameter^2/2. When the tumor volume of the control group reached 2000 mm^3, the experiment was ended, and molecular pathological analysis of tumor tissue was performed. The efficacy was evaluated based on the relative tumor growth inhibition rate (TGI), and the safety was evaluated based on the change of animal weight.
Formulation of test samples: An appropriate amount of compound 140 was weighed. An appropriate amount of ultrapure water was added and mixed well.
Methanesulfonic acid was then added to obtain a clear solution, and 4M NaOH was added dropwise to adjust pH to 4.3. Ultrapure water was added to obtain a constant volume and a final concentration of 5 mg/ml.
The solvent control group was an aqueous methanesulfonic acid solution (pH 4.3).
T/C % represents the relative tumor growth rate, that is, the percentage ratio of relative tumor volume or tumor weight of the administration group to that of the control group at a certain time point. T and C respectively represent the relative tumor volume (RTV) of the administration group and the control group at a certain time point. T/C % is calculated as follows:
wherein TRTV: the average RTV of the administration group; CRTV: the average RTV of the solvent control group: RTV=Vt/V0, V0 represents the tumor volume of the animal at the time of grouping, and Vt represents the tumor volume of the animal after administration.
Statistical analysis: All test results were expressed as mean tumor volume±SEM (mean standard error). The tumor volume data on Day 9 after the start of administration was selected for statistical analysis among different groups. The significant difference between the relative tumor volume of the administration group and that of the control group was determined by independent sample T test method. All data were analyzed with SPSS 18.0. p<0.05 means that there is a significant difference.

[1] = MOLM13 model, 50 mg/kg p.o. once a day, Day 9 after the start of administration

Q: What does the source list for `NC(=O)c1cn(-c2nc(Nc3cccc(N4CCN(C5CCOCC5)CC4)c3)ncc2F)c2ccccc12` [Compound 140, 1-(5-fluoro-2-{3-[4-(tetrahydro-pyran-4-yl)-piperazin-1-yl]-phenylamino}-pyrimidin-4-yl)-1H-indole-3-carboxamide]?
A: tolerability of the drug (50 mg/kg p.o. once a day): well tolerated; weight of the mouse during the administration (50 mg/kg p.o. once a day): remained stable; TGI (%) [1]: 91.29%; TIC (%) [1]: 8.71%; Tumor volume (mm^3) (MOLM13 model, 50 mg/kg p.o. once a day, Day 9 after the start of administration, mean ± SEM): 164.8 ± 12 mm^3; growth of human acute myeloid leukemia MOLM13 cells in vivo (dose of 50 mg/kg): effectively inhibit the growth
